From US11964938B2, “3-phenyl-4-hexynoic acid derivatives as GPR40 agonists” (CELON PHARMA S.A., priority 2018, dated 2024)
Where a name gives a salt, the structure may show the parent alone.

What was measured:
OAT1 = target: T1, OAT1 (Homo sapiens, UniProt Q4U2R8); assay: Uptake transporter inhibition assay, OAT1; format: cell-based; conditions: HEK293 cells overexpressing transporter
T1 construct: host or cells: HEK293
T1 sequence (Q4U2R8 1-563): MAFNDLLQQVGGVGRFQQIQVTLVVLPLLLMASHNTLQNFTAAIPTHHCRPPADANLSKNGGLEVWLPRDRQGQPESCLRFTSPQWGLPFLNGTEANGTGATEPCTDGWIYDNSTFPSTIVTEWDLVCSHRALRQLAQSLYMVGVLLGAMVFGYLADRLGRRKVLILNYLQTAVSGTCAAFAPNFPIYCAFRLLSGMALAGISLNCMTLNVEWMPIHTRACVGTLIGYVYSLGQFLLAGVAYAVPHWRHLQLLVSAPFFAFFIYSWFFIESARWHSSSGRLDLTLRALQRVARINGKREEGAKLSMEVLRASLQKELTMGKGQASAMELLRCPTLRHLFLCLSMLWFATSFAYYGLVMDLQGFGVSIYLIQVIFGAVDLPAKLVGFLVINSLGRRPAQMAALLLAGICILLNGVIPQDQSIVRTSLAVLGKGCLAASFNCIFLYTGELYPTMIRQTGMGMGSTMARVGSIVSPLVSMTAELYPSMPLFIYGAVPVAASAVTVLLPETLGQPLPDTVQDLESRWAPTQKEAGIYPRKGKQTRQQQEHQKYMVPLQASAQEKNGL
Procedure: Experiment B4: Bile Acid Transporters Inhibition in the Liver.
The compound was tested on a panel of 10 transporters: BSEP, MRP2, MRP3, MRP4 in a vesicular transport inhibition assay and NTCP, OAT1, OAT2v1, OATP1A2, OATP1B1, OATP1B3 in an uptake transporter inhibition assays.
Transporter uptake inhibition test was performed on mammal HEK293 cells overexpressing of a respective transporter. Cells were cultured at 37±1° C. and seeded on 96-well tissue culture plate at 1×10^5/well. Substrate was removed prior to experiment and cells were washed twice with 100 μl of respective buffer (HK pH 7.4 for OATP1B1 and HBSS pH 7.4 for NTCP, OAT1, OAT2v1, OATP1A2, and OATP1B3). Uptake studies were performed at 37±1° C. in 50 μl of respective buffer containing radioactively tagged substrate and tested compound or solvent.
After experiment cells were washed twice with 100 μl of ice-cold respective buffer and lysed with 50 μl of 0.1M NaOH. Transport of radioactively tagged substrate was determined by scintillation counter measurement.

[1] = test system: MIN6 (mouse insulinoma) cells; assay: Glucose-dependent insulin release in mouse insulinoma cells (MIN6); format: cell-based; conditions: multiplicity of insulin efflux increase in relation to control; 10 uM compound, 20 mM glucose, 1 hour
Procedure: Experiment B2: Glucose-Dependent Insulin Release in Mouse Insulinoma Cells (MIN6).
MIN6 (mouse insulinoma) cells were seeded on a plate covered with PDL (poly-D-lysine) at 5×10^5/well and cultured for 48 hours. […] Tested compounds, after dilution to the concentration of 10-40 uM in KRBH buffer with the addition of 20 mM glucose, were added to the cells and incubated for 1 hour to induce insulin release. Negative control was KRBH buffer with the addition of 2 mM glucose. Concentration of released insulin was determined using ELISA test (Mercodia).
Table 4 present MIN6Insulin @10 uM values for representative compounds of the invention. MIN6Insulin @10 uM value is a multiplicity of insulin efflux increase in relation to control experiment, following addition of 10 uM of tested compound.

[2] = test system: Wistar HAN Crl:WI (HAN) rats; assay: Glucose tolerance test in vivo on rats; set-up: species or system rat; conditions: 10 mg/kg oral single dose, blood
Procedure: Experiment B3: Glucose Tolerance Test In Vivo on Rats.
To evaluate glucose lowering effect of the compounds in in vivo study, glucose tolerance test (GTT) was performed. The study was performed on male outbred Wistar HAN Crl:WI (HAN) rats from Charles River, weight about 250-300 g, 8-10 weeks old. Rats were starved for 12 hours (with free access to water).
At time point t=0 animals were given orally a single dose of a compound (by a gastric tube) and immediately (t=0) and after 6 hour (t=6 h) intraperitoneal (i.p.) glucose bolus ([…]). At time points t=0 (just before oral administration of the compounds and intraperitoneal glucose administration), 0.25, 0.5, 1, 2, 2.5, 3, 6, 6.25, 7, 8, and 9 h blood samples from tail vein were collected from each animal for glucose level determination using Accu-chek glucometer (Roche Diagnostics) and additionally at t=0.25, 0.5, 1, 2, 2.5, and 3 h blood samples from tail vein were collected for insulin level measurement using ELISA test (Mercodia).
Tested compound were prepared in 5% DMSO/40% PEG300/55% PBS vehicle and administered at the dose of 10 mg/kg body weight in a volume of 0.5 ml/100 g body weight. After 4 hours after tested compound administration animals were given standard diet to the cages. Decrease of AUC value for glucose level in blood was calculated and the results for selected compounds of the invention are presented in Table 5. Analysis was performed using GraphPad prism software.

type 2 diabetes patients = conditions: cited from earlier work
human GPR40 receptor = target: T2, human GPR40 receptor (Homo sapiens, UniProt O14842); assay: Analysis of receptor activation - calcium ions concentration measurement (aequorin luminescence); format: cell-based; conditions: enhancement or decrease of activity in relation to reference TAK-875, from EC50 values
T2 construct: host or cells: CHO-K1 (co-expressing aequorin)
Description: Experiment B1: Analysis of Receptor Activation—Calcium Ions Concentration Measurement.
As a result of the measurement, luminescence change in the time curve were obtained, the integration of which allowed to calculate the relative amount of calcium ions released to cytosol. […] Curves plotted from obtained results allowed to determine EC50 values.

[3] = test system: diabetes STZ-treated mice; assay: Von Frey test on diabetes STZ-treated mice (tactile allodynia); format: in vivo, mouse; conditions: 60 minutes after administration, mean of group
Procedure: Experiment B5: Von Frey Test on Diabetes STZ-Treated Mice.
Tactile allodynia was assessed by electronic von Frey apparatus (Bioseb) equipped with a flexible filament. Reaction to stimuli was assessed using growing applied pressure (from 0 to 10 g) on a plantar side of the hind foot of mice. Pregabalin was a control, as reference healthy mice with preserved normal response to the stimuli were used. In the day of the experiment, mice were placed separately in cages with a wire mesh bottom for 1 h for habituation to experimental conditions. After habituation period, each mouse was treated 3 times alternately, with 30 s intervals between each measurement, to obtain starting values (before administration of the compound) of pain sensitivity. […] The results are presented in Table 7 as mean value for all mice in a given group (n=7-10).

T2 sequence (O14842 whole entry): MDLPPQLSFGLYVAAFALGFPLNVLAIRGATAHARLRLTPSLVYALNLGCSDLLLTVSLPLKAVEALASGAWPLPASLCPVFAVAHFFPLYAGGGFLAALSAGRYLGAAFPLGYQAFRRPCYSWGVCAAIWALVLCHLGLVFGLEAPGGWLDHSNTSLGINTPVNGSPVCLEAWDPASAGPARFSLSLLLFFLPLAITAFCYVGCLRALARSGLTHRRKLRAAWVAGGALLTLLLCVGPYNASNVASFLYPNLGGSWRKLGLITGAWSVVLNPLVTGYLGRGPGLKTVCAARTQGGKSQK

Compound | IC50 (OAT1) [µM] | MIN6Insulin @10 uM [1] | AUC for glucose (0-540 min.) ([2]; i.p. glucose bolus at t=0 and 6 h) | AUC for insulin (0-180 min.) ([2]; i.p. glucose bolus) | side effects (type 2 diabetes patients; clinical development, associated with inhibition of bile acids transport) | glucose levels (type 2 diabetes patients; phase 3 clinical trials, type 2 diabetes patients) | % PTAK-875 (human GPR40 receptor) | Applied pressure causing the response, sick animal (neuropathic) after compound administration ([3]; 3 mg/kg p.o.) [g] | Applied pressure causing the response, sick animal (neuropathic) after compound administration ([3]; 10 mg/kg p.o.) [g] | Applied pressure causing the response, sick animal (neuropathic) after compound administration ([3]; 30 mg/kg p.o.) [g]
Cc1cc(OCCCS(C)(=O)=O)cc(C)c1-c1cccc(COc2ccc3c(c2)OC[C@H]3CC(=O)O)c1 [Example R1, 2[(3S)-6-({3-[4-(3-methanesulfonylpropoxy)-2,6-dimethylphenyl]-phenyl}methoxy)-2,3-dihydro-1-benzofuran-3-yl]acetic acid, reference compound] | 34.8 | 1.336 | 30950.6 | 210.5 | side effects on the liver | ability to reduce glucose levels | B (81-120% PTAK-875) |  |  | 
CC#C[C@@H](CC(=O)O)c1ccc(OCC(C)=C(C)C)cc1 [Example S1, (3S)-3-{4-[(2,3-dimethylbut-2-en-1-yl)oxy]phenyl}hex-4-ynoic acid calcium salt] | 245 |  |  |  |  |  |  | 1.85 | 2.34 | 3.36
